Test results taken from patent US20250179113A1, “STEROID COMPOUND FOR TREATING CENTRAL NERVOUS SYSTEM DISEASE, METHOD FOR PREPARING SAME, AND USE AND PHARMACEUTICAL COMPOSITION THEREOF” (HUNAN KYF PHARMACEUTICAL CO., LTD., priority 2022, published 2025).

Tests used:
[1] = test system: GABAa receptor chloride ion channel of U251 cells; experiment: MQAE chloride ion fluorescent probe test on U251 cells (GABA-activated chloride channel); type: cell-based, human; details: sample 10 μM (Table 1), GABA in matrix, 1 min after addition, n = 6, vehicle control 42.543 ± 4.202
[2] = test system: mouse model of acute depression; experiment: Tail-suspension test, mouse model of acute depression; type: in vivo, ICR mice; details: 3 days; for Average Duration of Immobile State (Mean ± Standard Deviation), female: female ICR mice, model control 170.57 ± 28.43; for Average Duration of Immobile State (Mean ± Standard Deviation), female / Average Duration of Immobile State (Mean ± Standard Deviation), male: 26.0 mg/kg intraperitoneal, tested 24 h after administration, last 4 of 6 min, n = 5, 26 mg/kg; for Average Duration of Immobile State (Mean ± Standard Deviation), male: male ICR mice, model control 151.23 ± 35.02
Method: The experimental animals were administered drugs according to the grouping after 3 days of adaptive feeding. The experimental groups included the model group, the compound TM1 group, and the compound TM2 group. For each group of compounds to be tested, edible oil was used as the vehicle, and the administration route for all animals was intraperitoneal injection. The vehicle control group was given the same volume of edible oil by intraperitoneal injection, and the administration volume for each group was 20 mL/kg.
Brexanolone is used to treat postpartum depression. Its usage and dosage are continuous intravenous injection for 60 hours, with a dosage of 100 mg every 12 hours. At the beginning of the administration, it is necessary to gradually increase the drug use rate, and at the end of the administration, it is necessary to gradually decrease the drug use rate. Therefore, the total drug use within the treatment cycle is 450 mg. Referring to the Brexanolone administration cycle, the administration cycle was set to 3 days, with one administration in the morning every day.
The clinical dosage of Brexanolone is approximately 200 mg/d. Calculated based on an adult weight of 70 kg, the clinical dose of Brexanolone is 2.857 mg/kg/d. The equivalent dose conversion coefficient between humans and mice calculated according to body surface area is 0.0026. Taking the weight of mice as 20 g, the converted dose for mice is: 2.857 mg/kg/d×70 kg×0.0026/0.02 kg=25.999 mg/kg/d, which is counted as 26.0 mg/kg/d.
This study is for validity verification, and single-dose detection is used for the time being. The administration cycle and clinical dosage of the compounds of the present invention refer to the administration cycle and clinical dosage of Brexanolone mentioned above.
The detection indicator is the behavioral changes of mice in the last 4 minutes within 6 minutes, including the time when the immobile state first appears and the duration of the immobile state. Among them, the immobile state refers to the state in which the animal gives up active struggling and remains completely still.
Detection method: 24 hours after the administration of drugs to animals in each group, the animals in each group were placed in the laboratory for 30 minutes to 1 hour to reduce the animals' anxiety about the new environment. Install a video camera in front of the tail suspension box, set the corresponding parameters in the software, and enter the information such as the animal number and status. Take out the experimental animals, mark them with a marker pen at a position […] away from the tip of the tail, fix the tail at the marked position with medical tape. After the tails of the animals in the same group are fixed with tape, quickly suspend the mice in the same group into the tail suspension box device, turn on the behavioral software to record the behavioral situation for 6 minutes, and analyze the behavioral changes in the last 4 minutes.

[3] = test system: GABAA receptor (primary hippocampal neuronal cells); experiment: Whole-cell patch clamp of GABA receptor currents in primary hippocampal neuronal cells; type: cell-based, SD suckling mice; details: average

In the case of CC1(O)CCC2(C)C(CCC3C2CCC2(C)C(C(=O)Cn4cc(C#N)cn4)CCC32)C1 (stereo not shown) [TM17], the “Average fluorescence intensity (mean ± standard deviation)” value [1] is reported as 47.499±2.240, the “Average Duration of Immobile State (Mean ± Standard Deviation), female” value [2] is reported as 198.88 ± 15.08 s and the “Average Duration of Immobile State (Mean ± Standard Deviation), male” value [2] is reported as 177.67 ± 20.05 s.
With CC1(O)CCC2(C)C(CCC3C2CCC2(C)C(C(=O)Cn4cc(C#N)cn4)CCC32)C1 (stereo not shown) [TM18] the “Average fluorescence intensity (mean ± standard deviation)” value [1] was 48.621±1.006, the “Average Duration of Immobile State (Mean ± Standard Deviation), female” value [2] was 174.02 ± 18.28 s and the “Average Duration of Immobile State (Mean ± Standard Deviation), male” value [2] was 193.80 ± 15.62 s. The “immobility time prolonged compared with the model control group, male animals” value ([2]; male mice, 26.0 mg/kg i.p.) was “about 20%”, the “The percentage increase after calibration with GABA 15 μM as the reference, GABA 15 μM + TM 18 0.01 μM” value ([3]; TM 18 0.01 μM with GABA 15 μM) was 129.85% and the “The percentage increase after calibration with GABA 15 μM as the reference, GABA 15 μM + TM 18 0.1 μM” value ([3]; TM 18 0.1 μM with GABA 15 μM) was 288.44%. For the same compound, the “The percentage increase after calibration with GABA 15 μM as the reference, GABA 15 μM + TM 18 1 μM” value ([3]; TM 18 1 μM with GABA 15 μM) was 108.82%.
